Here are results for 15 compounds from US20250059171A1 (Hoffmann-La Roche Inc., priority 2021, published 2025).

One assay concerns the target SARS-CoV 3CLpro (Severe acute respiratory syndrome coronavirus, UniProt P0C6X7). As to the kind of experiment: biochemical.
For the next assay, the target named is SARS-CoV-2 3CLpro (Severe acute respiratory syndrome coronavirus 2, UniProt P0DTD1). The experiment in a line: biochemical.
A further assay concerns the target HCoV-229E 3CLpro (Human coronavirus 229E, UniProt P0C6X1). As to the kind of experiment: HCoV-229E 3CLpro inhibition assay (FRET). Format: biochemical.
The target in another assay is MERS-CoV 3CLpro (Middle East respiratory syndrome-related coronavirus, UniProt K9N7C7). The experiment in a line: biochemical.
Chain of MERS-CoV 3CLpro (K9N7C7 3248-3553): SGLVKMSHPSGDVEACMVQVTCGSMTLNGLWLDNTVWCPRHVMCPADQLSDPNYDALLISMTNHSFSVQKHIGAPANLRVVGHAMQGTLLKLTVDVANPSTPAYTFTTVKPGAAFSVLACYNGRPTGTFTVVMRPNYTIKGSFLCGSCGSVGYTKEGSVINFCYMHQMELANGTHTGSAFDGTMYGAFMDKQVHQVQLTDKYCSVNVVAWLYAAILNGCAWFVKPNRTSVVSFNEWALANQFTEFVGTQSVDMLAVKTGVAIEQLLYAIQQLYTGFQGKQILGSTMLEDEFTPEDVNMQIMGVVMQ

Chain of HCoV-229E 3CLpro (P0C6X1 2966-3267): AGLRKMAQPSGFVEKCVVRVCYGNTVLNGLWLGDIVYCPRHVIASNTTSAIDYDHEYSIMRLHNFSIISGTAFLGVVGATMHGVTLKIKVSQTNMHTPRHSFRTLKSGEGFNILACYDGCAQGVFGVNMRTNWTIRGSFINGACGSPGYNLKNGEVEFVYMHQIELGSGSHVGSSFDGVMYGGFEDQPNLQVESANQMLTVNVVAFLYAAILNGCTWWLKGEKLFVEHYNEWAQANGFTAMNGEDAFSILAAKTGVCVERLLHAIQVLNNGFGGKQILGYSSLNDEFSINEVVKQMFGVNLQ

With `CC[C@@H](C)[C@H](NC(=O)C1(F)CCC1)C(=O)N1C[C@H]2[C@@H]([C@H]1C(=O)NN(C[C@@H]1CCNC1=O)C(=O)[C@H](F)Cl)C2(C)C` [Example 119, N-[(1S,2R)-1-[(1R,2S,5S)-2-[[[(2R)-2-chloro-2-fluoro-acetyl]-[[(3S)-2-oxopyrrolidin-3-yl]methyl]amino]carbamoyl]-6,6-dimethyl-3-azabicyclo[3.1.0]hexane-3-carbonyl]-2-methyl-butyl]-1-fluoro-cyclobutanecarboxamide], the IC50 (commonly the concentration needed to halve the response being measured) amounted to 20 nM against SARS-CoV 3CLpro, 15 nM on SARS-CoV-2 3CLpro, 56 nM against HCoV-229E 3CLpro and 206 nM against MERS-CoV 3CLpro.

`C[C@H]1C[C@@H](C(=O)NN(C[C@@H]2CCNC2=O)C(=O)[C@H](F)Cl)N(C(=O)[C@@H](NC(=O)C(F)(F)F)C(C)(C)C)C1` [Example 27, N-[(1S)-1-[(2S,4S)-2-[[[(2R)-2-chloro-2-fluoro-acetyl]-[[(3S)-2-oxopyrrolidin-3-yl]methyl]amino]carbamoyl]-4-methyl-pyrrolidine-1-carbonyl]-2,2-dimethyl-propyl]-2,2,2-trifluoro-acetamide]: the IC50 at SARS-CoV 3CLpro worked out at 20 nM; against SARS-CoV-2 3CLpro it was 29 nM; against HCoV-229E 3CLpro it was 29 nM; against MERS-CoV 3CLpro, 136 nM.

Regarding `CC1(C)[C@@H]2[C@@H](C(=O)NN(C[C@@H]3CCNC3=O)C(=O)[C@H](F)Cl)N(C(=O)c3cc(F)cc(C(F)(F)F)c3)C[C@@H]21` [Example 179, (1R,2S,5S)—N′-[(2R)-2-chloro-2-fluoro-acetyl]-3-[3-fluoro-5-(trifluoromethyl)benzoyl]-6,6-dimethyl-N′—[[(3S)-2-oxopyrrolidin-3-yl]methyl]-3-azabicyclo[3.1.0]hexane-2-carbohydrazide], the IC50 was found to be 222 nM against SARS-CoV 3CLpro, 201 nM against SARS-CoV-2 3CLpro, 93 nM at HCoV-229E 3CLpro and 315 nM against MERS-CoV 3CLpro.

For `CCC(CC)[C@H](NC(=O)C(F)F)C(=O)N1C[C@H]2[C@@H]([C@H]1C(=O)NN(C[C@@H]1CCNC1=O)C(=O)[C@H](F)Cl)C2(C)C` [Example 131, N-[(1S)-1-[(1R,2S,5S)-2-[[[(2R)-2-chloro-2-fluoro-acetyl]-[[(3S)-2-oxopyrrolidin-3-yl]methyl]amino]carbamoyl]-6,6-dimethyl-3-azabicyclo[3.1.0]hexane-3-carbonyl]-2-ethyl-butyl]-2,2-difluoro-acetamide], the IC50 at SARS-CoV 3CLpro amounted to 14 nM; on SARS-CoV-2 3CLpro, 10 nM; at HCoV-229E 3CLpro, 26 nM; against MERS-CoV 3CLpro, 158 nM.

Consider `CC[C@@H](C)[C@H](NC(=O)C(F)(F)F)C(=O)N1C[C@@H]2CCC[C@@H]2[C@H]1C(=O)NN(C[C@@H]1CCNC1=O)C(=O)[C@H](F)Cl` [Example 73, N-[(1S,2R)-1-[(3S,3aS,6aR)-3-[[[(2R)-2-chloro-2-fluoro-acetyl]-[[(3S)-2-oxopyrrolidin-3-yl]methyl]amino]carbamoyl]-3,3a,4,5,6,6a-hexahydro-1H-cyclopenta[c]pyrrole-2-carbonyl]-2-methyl-butyl]-2,2,2-trifluoro-acetamide], for which the concentration for half-maximal inhibition (IC50) against SARS-CoV 3CLpro amounted to 12 nM; at SARS-CoV-2 3CLpro it was 33 nM; at HCoV-229E 3CLpro, 40 nM; on MERS-CoV 3CLpro, 110 nM.

In the case of `CC(C)(F)C(=O)N[C@H](C(=O)N1C[C@@H]2CCC[C@@H]2[C@H]1C(=O)NN(C[C@@H]1CCNC1=O)C(=O)[C@H](F)Cl)C(C)(C)C` [Example 35, N-[(1S)-1-[(3S,3aS,6aR)-3-[[[(2R)-2-chloro-2-fluoro-acetyl]-[[(3S)-2-oxopyrrolidin-3-yl]methyl]amino]carbamoyl]-3,3a,4,5,6,6a-hexahydro-1H-cyclopenta[c]pyrrole-2-carbonyl]-2,2-dimethyl-propyl]-2-fluoro-2-methyl-propanamide], the half-inhibitory concentration (IC50) on SARS-CoV 3CLpro came out at 8 nM; on SARS-CoV-2 3CLpro, 8 nM; on HCoV-229E 3CLpro, 23 nM; against MERS-CoV 3CLpro, 60 nM.

As to `CCC(C)(C)[C@H](NC(=O)[C@H](C)F)C(=O)N1C[C@H]2[C@@H]([C@H]1C(=O)NN(C[C@@H]1CCNC1=O)C(=O)[C@H](F)Cl)C2(C)C` [Example 140, (2S)—N-[(1S)-1-[(1R,2S,5S)-2-[[[(2R)-2-chloro-2-fluoro-acetyl]-[[(3S)-2-oxopyrrolidin-3-yl]methyl]amino]carbamoyl]-6,6-dimethyl-3-azabicyclo[3.1.0]hexane-3-carbonyl]-2,2-dimethyl-butyl]-2-fluoro-propanamide], the half-maximal inhibitory concentration (IC50) came out at 25 nM against SARS-CoV 3CLpro, 11 nM on SARS-CoV-2 3CLpro, 31 nM against HCoV-229E 3CLpro and 94 nM against MERS-CoV 3CLpro.

As to `CC(C)(C)[C@H](NC(=O)C1(F)CC1)C(=O)N1C[C@@H]2CCC[C@@H]2[C@H]1C(=O)NN(C[C@@H]1CCNC1=O)C(=O)[C@@H](F)Cl` [Example 103, N-[(1S)-1-[(3S,3aS,6aR)-3-[[[(2S)-2-chloro-2-fluoro-acetyl]-[[(3S)-2-oxopyrrolidin-3-yl]methyl]amino]carbamoyl]-3,3a,4,5,6,6a-hexahydro-1H-cyclopenta[c]pyrrole-2-carbonyl]-2,2-dimethyl-propyl]-1-fluoro-cyclopropanecarboxamide], the IC50 on SARS-CoV 3CLpro was determined as 25 nM; on SARS-CoV-2 3CLpro, 13 nM; against HCoV-229E 3CLpro it was 167 nM; on MERS-CoV 3CLpro, 372 nM.

As for `CC[C@H](C)[C@H](NC(=O)C(C)F)C(=O)N1C[C@H]2[C@@H]([C@H]1C(=O)NN(C[C@@H]1CCNC1=O)C(=O)[C@H](F)Cl)C2(C)C` (mixture of isomers) [Example 56, Rac-2-fluoro-N-[(1S,2S)-2-methyl-1-[(1R,2S,5S)-6,6-dimethyl-2-[[[(2R)-2-chloro-2-fluoro-acetyl]-[[(3S)-2-oxopyrrolidin-3-yl]methyl]amino]carbamoyl]-3-azabicyclo[3.1.0]hexane-3-carbonyl]butyl]propanamide], the half-inhibitory concentration (IC50) worked out at 11 nM on SARS-CoV 3CLpro, 8 nM against SARS-CoV-2 3CLpro, 18 nM against HCoV-229E 3CLpro and 52 nM at MERS-CoV 3CLpro.

In the case of `CC[C@H](C)[C@H](NC(=O)C(F)(F)C(F)(F)F)C(=O)N1C[C@H]2[C@@H]([C@H]1C(=O)NN(C[C@@H]1CCNC1=O)C(=O)[C@H](F)Cl)C2(C)C` [Example 62, N-[(1S,2S)-1-[(1R,2S,5S)-2-[[[(2R)-2-chloro-2-fluoro-acetyl]-[[(3S)-2-oxopyrrolidin-3-yl]methyl]amino]carbamoyl]-6,6-dimethyl-3-azabicyclo[3.1.0]hexane-3-carbonyl]-2-methyl-butyl]-2,2,3,3,3-pentafluoro-propanamide], the IC50 is 10 nM on SARS-CoV 3CLpro, 8 nM on SARS-CoV-2 3CLpro, 17 nM at HCoV-229E 3CLpro and 43 nM on MERS-CoV 3CLpro.

On to `CCC(C)(C)[C@H](NC(=O)C(C)F)C(=O)N1C[C@H]2[C@@H]([C@H]1C(=O)NN(C[C@@H]1CCNC1=O)C(=O)[C@@H](F)Cl)C2(C)C` (mixture of isomers) [Example 146, Rac-2-fluoro-N-[(1S)-2,2-dimethyl-1-[(1R,2S,5S)-6,6-dimethyl-2-[[[(2S)-2-chloro-2-fluoro-acetyl]-[[(3S)-2-oxopyrrolidin-3-yl]methyl]amino]carbamoyl]-3-azabicyclo[3.1.0]hexane-3-carbonyl]butyl]propanamide], for which the IC50 stood at 23 nM on SARS-CoV 3CLpro, 16 nM at SARS-CoV-2 3CLpro, 69 nM against HCoV-229E 3CLpro and 151 nM against MERS-CoV 3CLpro.

For the compound `CCC(CC)[C@H](NC(=O)C1(F)CC1)C(=O)N1CC(C)(C)C[C@H]1C(=O)NN(C[C@@H]1CCNC1=O)C(=O)[C@H](F)Cl` [Example 138, N-[(1S)-1-[(2S)-2-[[[(2R)-2-chloro-2-fluoro-acetyl]-[[(3S)-2-oxopyrrolidin-3-yl]methyl]amino]carbamoyl]-4,4-dimethyl-pyrrolidine-1-carbonyl]-2-ethyl-butyl]-1-fluoro-cyclopropanecarboxamide], the IC50 on SARS-CoV 3CLpro was determined as 25 nM; against SARS-CoV-2 3CLpro it was 16 nM; on HCoV-229E 3CLpro, 54 nM; on MERS-CoV 3CLpro it was 283 nM.

`CC1([C@H](NC(=O)C(F)(F)F)C(=O)N2CC3(CC3)C[C@H]2C(=O)NN(C[C@@H]2CCNC2=O)C(=O)[C@H](F)Cl)CC1` [Example 24, N-[(1S)-2-[(6S)-6-[[[(2R)-2-chloro-2-fluoro-acetyl]-[[(3S)-2-oxopyrrolidin-3-yl]methyl]amino]carbamoyl]-5-azaspiro[2.4]heptan-5-yl]-1-(1-methylcyclopropyl)-2-oxo-ethyl]-2,2,2-trifluoro-acetamide]: the IC50 at SARS-CoV 3CLpro was found to be 13 nM; on SARS-CoV-2 3CLpro, 18 nM; at HCoV-229E 3CLpro it was 31 nM; against MERS-CoV 3CLpro, 114 nM.

With `CCC(C)[C@H](NC(=O)C1(F)CCC1)C(=O)N1C[C@@H]2CCC[C@@H]2[C@H]1C(=O)NN(C[C@@H]1CCNC1=O)C(=O)[C@H](F)Cl` (stereo in doubt) [Example 125, N-[(1S,2S)-1-[(3S,3aS,6aR)-3-[[[(2R)-2-chloro-2-fluoro-acetyl]-[[(3S)-2-oxopyrrolidin-3-yl]methyl]amino]carbamoyl]-3,3a,4,5,6,6a-hexahydro-1H-cyclopenta[c]pyrrole-2-carbonyl]-2-methyl-butyl]-1-fluoro-cyclobutanecarboxamide], the half-inhibitory concentration (IC50) was 12 nM at SARS-CoV 3CLpro, 10 nM on SARS-CoV-2 3CLpro, 42 nM against HCoV-229E 3CLpro and 114 nM against MERS-CoV 3CLpro.

For the compound `CC(C)C(=O)N[C@H](C(=O)N1CC2(CC2)C[C@H]1C(=O)NN(C[C@@H]1CCNC1=O)C(=O)[C@H](F)Cl)C(C)(C)C` [Example 25, N-[(1S)-1-[(6S)-6-[[[(2R)-2-chloro-2-fluoro-acetyl]-[[(3S)-2-oxopyrrolidin-3-yl]methyl]amino]carbamoyl]-5-azaspiro[2.4]heptane-5-carbonyl]-2,2-dimethyl-propyl]-2-methyl-propanamide], the half-maximal inhibitory concentration (IC50) was found to be 27 nM against SARS-CoV 3CLpro, 15 nM at SARS-CoV-2 3CLpro, 127 nM against HCoV-229E 3CLpro and 408 nM against MERS-CoV 3CLpro.
